These results are taken from US12492208B2, “Crystal of pyrimidine compound” (TAIHO PHARMACEUTICAL CO., LTD., priority 2020, dated 2025).

Series [1] is described as follows: Dynamic vapor sorption (DVS) test. Type of series: physicochemical. Conditions: for Weight change rate, Adsorption / Weight change rate, Desorption: 25° C. The protocol: Dynamic vapor sorption tests were conducted using a type II crystal of compound (I) with1 equivalent of fumaric acid, a free-form type II crystal of the same, a free-form type I crystal of the same, a type V crystal of the same with 1 equivalent of fumaric acid, and a crystal of the same with 1 equivalent of L-tartaric acid obtained in the Examples and Reference Examples.
The dynamic vapor sorption test was conducted for measurement according to the following conditions.
Approximately 10 mg of each sample was packed in a dedicated quartz holder, and the weight of the sample at each humidity was continuously measured and recorded under the following conditions.

Series [2] in a line: Blood concentration measurement test. Type of series: in vivo, female rats (Crl:CD (SD)). The settings on record: rat, oral; for AUC0-6hr / Cmax / Tmax: listed as Type II crystal of compound (I) with 1 equivalent of fumaric acid. The protocol: Blood concentration measurement tests were conducted for the type I crystal of compound (I), the type II crystal of compound (I), and the type II crystal of compound (I) with 1 equivalent of fumarate obtained in the Examples. Specifically, 0.5% HPMC containing 0.1N hydrochloric acid was used for the type I crystal of compound (I) and 0.5% HPMC was used for the type II crystal of compound (I) and the type II crystal of compound (I) with 1 equivalent of fumaric acid to convert each crystal into the compound (I) (free-form) in terms of molecular weight so as to prepare suspensions of 100 mg/10 mL and 300 mg/10 mL. These administration solutions were orally administered to female rats (Crl:CD (SD), Charles River Laboratories Japan, Inc.) kept under feeding conditions at a volume of 10 mL/kg body weight using an oral administration sonde. After administration, the rats were returned to the rat cage and their conditions were checked. Water and feeding were freely available in the cage. At 0.5, 1, 2, 4, and 6 hours after administration, the rats were anesthetized with isoflurane, and approximately 80 μL of blood was collected from the jugular vein using a heparin-coated syringe and an injection needle (25 G).
The collected blood was ice-cooled and plasma was separated by centrifugation. After the blood collection was completed, the rats were returned to the rat cage and the state after awakening of anesthesia was checked. After the final blood collection, the depth of isoflurane anesthesia was checked. Then, the limbs were fixed in a supine position with a small animal experiment holding apparatus, and the abdomen was opened such that each rat was euthanized by exsanguination through an incision in the abdominal aorta and vena cava.
AUC0-6 hr (Area under the blood concentration-time curve for 0 to 6 hours after administration calculated by the trapezoidal method), Cmax (maximum blood concentration), and Tmax (time to reach maximum blood concentration) were calculated from the concentration of the compound (I) in each plasma measured by the MRM method using LC/MS/MS and quantified from the calibration curve using Phoenix WinNonlin (v6.4.0,Certara USA, Inc.).

The nature of series [3]: Solid stability test. Type of series: physicochemical. The protocol: The free-form type II crystals of the compound (I) and type II crystals thereof with 1 equivalent of fumaric acid obtained in the Examples and Comparative Examples were evaluated for solid stability after storage for 4 weeks. • Storage condition: 60° C. (closed system) • Storage period: 4 weeks • Stored amount: Approximately 30 mg • Storage container: Glass bottle
Approximately 1 mg of a sample was weighed, dissolved in approximately 1 mL of a liquid mixture of water/acetonitrile (1:1), and 5 μL of this solution was accurately measured. Changes in the amount of related substances (the amount of substances detected other compound (I)) were analyzed by HPLC by the following method. Hplc Analysis Method (Stability Test)
The amount of related substances in the sample solution was measured by HPLC analysis. Handling of the apparatuses, including data processing, was in accordance with the methods and procedures instructed for each apparatus. • Column: XSelect CSH C18 (4.6×150 mm, 3.5 μm) manufactured by Waters • UV detection: 246 nm • Column temperature: 40° C. • Flow rate: 1.0 mL/min • Sample cooler: 5° C. • Sample concentration: 1 mg/mL • Mobile phase A: Liquid mixture of 5 mmol/L ammonium formate buffer (pH 6.5)/acetonitrile (9:1) • Mobile phase B: Acetonitrile

For series [4] the following is noted: non-clinical tests; substrates of p-gp or Bcrp; cited from earlier work.
Series [5] concerns brain metastatic cancer. The settings on record: clinical tests; cited from earlier work.
Setting [6] is: 60° C. (closed system), 4 weeks.
[7] abbreviates: 60° C. (closed system), 4 weeks, listed as Type II crystal with 1 equivalent of fumaric acid.
Where [8] appears, read: before storage, listed as Type II crystal with 1 equivalent of fumaric acid.

As to `C=CC(=O)N1C[C@H](n2c(C#CC3CC3)c(C(=O)N[C@H](C)c3ccccc3)c3c(N)ncnc32)C[C@@H]1C` [type II crystal of compound (I) with 1 equivalent of fumaric] [7-((3R,5S)-1-acryloyl-5-methylpyrrolidin-3-yl)-4-amino-6-(cyclopropylethynyl)-N—((R)-1-phenylethyl)-7H-pyrrolo[2,3-d]pyrimidine-5-carboxamide], in series [1] (from mass increase under 95% relative humidity), the hygroscopicity determination result is given as “almost non-hygroscopic”. Further, in series [1] (relative humidity 5%), the “Weight change rate, Adsorption” value turned out to be 0.01% and the “Weight change rate, Desorption” value amounted to 0.04%. In addition, in series [1] (relative humidity 20%), the “Weight change rate, Adsorption” value is reported as 0.11% and the “Weight change rate, Desorption” value stood at 0.13%. In series [1] (relative humidity 40%), the “Weight change rate, Adsorption” value was 0.18% and the “Weight change rate, Desorption” value is 0.20%. Besides, in series [1] (relative humidity 60%), the “Weight change rate, Adsorption” value came out at 0.27% and the “Weight change rate, Desorption” value is listed as 0.30%. For the same compound, in series [1] (relative humidity 80%), the “Weight change rate, Adsorption” value was found to be 0.34% and the “Weight change rate, Desorption” value is 0.34%. For the same compound, in series [1] (relative humidity 95%), the “Weight change rate, Adsorption” value was determined as 0.38% and the “Weight change rate, Desorption” value is 0.38%. For the same compound, in series [2], the “AUC 0-6 hr increase when the dose was increased from 100 mg/kg to 300 mg/kg” value is reported as 1.9 times and the “Cmax increase when the dose was increased from 100 mg/kg to 300 mg/kg” value amounted to 1.9 times. In series [2] (100 mg/kg), the AUC0-6hr is 6.14 µM·h, the Cmax turned out to be 2.74 µM and the Tmax was found to be 75 min. In addition, in series [2] (300 mg/kg), the “AUC0-6 hr relative to the value of the type I crystal of compound (I) with the acid” value came to 2.4 times, the “AUC0-6 hr relative to the value of the type II crystal of compound (I)” value was 2.4 times, the “Cmax relative to the value of the type I crystal of compound (I) with the acid” value came out at 1.7 times and the “Cmax relative to the value of the type II crystal of compound (I)” value came to 1.4 times. In series [2] (300 mg/kg), the AUC0-6hr worked out at 11.9 µM·h, the Cmax worked out at 5.34 µM and the Tmax is 30 min. For the same compound, in series [3] (setting [6]), the “change in the powder X-ray diffraction pattern” value is reported as “no change” and the “increase in related substances” value was “almost no increase”. Also, in series [3] (setting [7]), the “Amount of related substances after storage” value is reported as 0.15% and the “Chemical purity after storage” value worked out at 99.85%. Further, in series [3] (setting [8]), the “Amount of related substances before storage” value came to 0.15% and the “Chemical purity before storage” value is reported as 99.85%.
In the case of `CCOc1cc2ncc(C#N)c(Nc3ccc(OCc4ccccn4)c(Cl)c3)c2cc1NC(=O)/C=C/CN(C)C` [Neratinib], the brain penetration properties result in series [4] is reported as “limited”. In addition, the “effects against brain metastatic cancer” value in series [5] is listed as “sufficient effects of these agents could not be obtained”.
Take `CS(=O)(=O)CCNCc1ccc(-c2ccc3ncnc(Nc4ccc(OCc5cccc(F)c5)c(Cl)c4)c3c2)o1` [Lapatinib]: in series [4], the brain penetration properties entry was “limited”. The “effects against brain metastatic cancer” value in series [5] is listed as “sufficient effects of these agents could not be obtained”.
